“Also recorded” adds a separate entry of the source.
Assays:
hFL-HCC = experiment: Treatment of the hFL-HCC patient from whom TU-2010 was derived; assay type: in vivo, human; conditions: for clinical response of the patient's tumor: one patient, metastatic hFL-HCC; for disease course under treatment / tolerability in the patient: Paclitaxel and thalidomide given together, chosen from sensitivity studies
hFL-HCC cells of TU-2010 [1] = experiment: Spheroid formation assay; assay type: cell-based, human; conditions: spheroids in serum-free Kubota's Medium, low attachment plates
Description: For secondary spheroid formation assays, the 1st spheroids were collected, subsequently dissociated with NeuroCult Chemical Dissociation Kit ([…] Technologies). Cell suspension was centrifuged at 700 rpm 10 min and resuspended with KM. After 2 weeks, the number of spheroids (100 μm>) were counted.

hFL-HCC cells of TU-2010 [2] = experiment: Cell proliferation assay (WST-1) on monolayer cultures of hFL-HCC cells; assay type: cell-based, human
Description: For cell proliferation assays, 3×10^4 hFL-HCC cells of TU-2010 were depleted of host mesenchymal cells by magnetic sorting of xenotransplantable tumor cell suspension and then were seeded into each well of a 96-well plate and cultured overnight with Kubota's Medium+5% FBS. […] Cell proliferation was evaluated using the Cell Proliferation Reagent WST-1 (Roche Applied Science, Mannheim, Germany). After incubation at 37° C. for 2 hours, the absorbance at 450 nm was measured.

## O=c1[nH]cc(F)c(=O)[nH]1 [5-FU]
hFL-HCC
  clinical response of the patient's tumor: limited or no response

## CS(=O)(=O)c1ccc(C(=O)Nc2ccc(Cl)c(-c3ccccn3)c2)c(Cl)c1 [GDC-0449, Vismodegib]
hFL-HCC cells of TU-2010 [1]
  suppression of hFL-HCC survival and growth in spheroid cultures compared with monolayer cultures: even more sensitive to inhibition; also recorded: far more effective
hFL-HCC cells of TU-2010 [2]; 4 μM and especially 20 μM, drug added for 3 days
  suppression of survival and proliferation (growth) of hFL-HCC cells: strongly inhibited; also recorded: suppress survival and proliferation

## CC(=O)O[C@H]1C(=O)[C@@]2(C)[C@H]([C@H](OC(=O)c3ccccc3)[C@]3(O)C[C@H](OC(=O)[C@H](O)[C@@H](NC(=O)c4ccccc4)c4ccccc4)C(C)=C1C3(C)C)[C@]1(OC(C)=O)CO[C@@H]1C[C@@H]2O [Paclitaxel]
hFL-HCC
  disease course under treatment: continued disease progression
  tolerability in the patient: poorly tolerated

## O=C(CCCCCCC(=O)Nc1ccccc1)NO [SAHA, suberoylanilide hydroxamic acid]
hFL-HCC cells of TU-2010 [1]
  suppression of hFL-HCC survival and growth in spheroid cultures compared with monolayer cultures: even more sensitive to inhibition

## O=C(CCCCCCC(=O)NO)NO [SBHA, suberic bis-hydroxamic acid]
hFL-HCC cells of TU-2010 [1]
  suppression of hFL-HCC survival and growth in spheroid cultures compared with monolayer cultures: even more sensitive to inhibition
hFL-HCC cells of TU-2010 [2]; 10 μM and 20 μM, drug added for 3 days
  inhibitory effect on hFL-HCC cell survival and growth: strong inhibitory effects
hFL-HCC cells of TU-2010 [2]; 10 μM and 50 μM
  inhibition of hFL-HCC cell growth: strongly inhibited

## N.N.[Cl][Pt][Cl] [cisplatinum]
hFL-HCC
  clinical response of the patient's tumor: limited or no response

## COc1cccc2c1C(=O)c1c(O)c3c(c(O)c1C2=O)C[C@@](O)(C(=O)CO)C[C@@H]3O[C@H]1C[C@H](N)[C@H](O)[C@H](C)O1 [doxorubicin]
hFL-HCC
  clinical response of the patient's tumor: limited or no response

## Nc1ccn([C@@H]2O[C@H](CO)[C@@H](O)C2(F)F)c(=O)n1 [gemcitabine]
hFL-HCC
  clinical response of the patient's tumor: limited or no response

## CNC(=O)c1cc(Oc2ccc(NC(=O)Nc3ccc(Cl)c(C(F)(F)F)c3)cc2)ccn1 [sorafenib]
hFL-HCC
  clinical response of the patient's tumor: limited or no response

## O=C1CCC(N2C(=O)c3ccccc3C2=O)C(=O)N1 (centres unmarked) [thalidomide]
hFL-HCC
  disease course under treatment: continued disease progression
  tolerability in the patient: poorly tolerated
  clinical response of the patient's tumor: limited or no response

## bevacizumab
hFL-HCC
  clinical response of the patient's tumor: limited or no response

— patent publication US11932877B2, “Human fibrolamellar hepatocellular carcinomas (hFL-HCCs)” (priority 2015, dated 2024)
